US20240025906A1 (NEURON23, INC., priority 2022, published 2024)
Where two headings read alike, the source gives them in different places.

Key:
TYK2 JH2 = biological target: T1, TYK2 JH2 (Homo sapiens, UniProt P29597); assay: TYK2 JH2 binding assay (KINOMEscan KdELECT competitive binding); conditions: TYK2 JH2 domain
T1 construct: purchased DiscoverX (KINOMEscan KdELECT service); host or cells: E. coli BL21-derived (T7 phage display) or HEK-293
Outline: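 Kd values come from qPCR measurement of kinase retained on an immobilized-ligand resin after 1 h room-temperature competition with compound in an 11-point, 3-fold series.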

[1] = tested on: JAK1/TYK2 pSTAT5 (Tyr694/699) in THP-1 cell line; assay: IFNa-stimulated JAK1/TYK2 pSTAT5 (Tyr694/699) inhibition cellular assay, AlphaLISA; assay type: cell-based; conditions: Homo sapiens, THP-1 cells, AlphaLISA (Assay B)
Outline: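 The readout is AlphaLISA signal at 615 nm for phospho-STAT5 in THP-1 lysates after IFNa stimulation (added at 100 ng/mL, 30 min, 37 °C). Cells had compound for 1 h beforehand across eight 6-fold concentrations up to 10000 nM final. IC50s are 4PL fits with bottom and Hill slope constrained.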

[2] = DiscoverX KINOMEscan KdELECT (Assay A), read-out: Biochemical TYK2_DiscoverX_JH2_BND_Kd
[3] = IFNa-stimulated, read-out: Cellular_THP1_IFNa-pSTATS_TYK2
[4] = KINOMEscan KdELECT (Assay A), read-out: Biochemical TYK2_DiscoverX_JH2_BND_Kd
[5] = KINOMEscan KdELECT (Assay A), read-out: Biochemical TYK2_JH2_Kd
[6] = IFNa-stimulated, read-out: Cellular THP1_IFNa-pSTATS_IC50
[7] = IFNa-stimulated pSTAT5 (Tyr694/699), read-out: Cellular_THP1_IFNa-pSTATS_TYK2

T1 sequence (P29597 589-875 limits assumed): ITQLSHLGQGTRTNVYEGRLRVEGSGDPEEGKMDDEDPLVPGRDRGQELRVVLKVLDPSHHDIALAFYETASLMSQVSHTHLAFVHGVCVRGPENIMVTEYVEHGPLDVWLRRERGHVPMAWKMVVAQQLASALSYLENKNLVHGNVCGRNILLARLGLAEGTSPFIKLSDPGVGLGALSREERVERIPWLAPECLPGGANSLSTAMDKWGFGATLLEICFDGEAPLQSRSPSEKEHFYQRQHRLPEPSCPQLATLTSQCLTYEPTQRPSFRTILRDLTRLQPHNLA

Row | SMILES | IC50 [1, 3] [nM] | Kd (TYK2 JH2; [4]) [nM] | other results
1 | CNc1ncc(-c2nc3cc(O[C@H]4C[C@@H](OC)C4)ccc3o2)c2cc(NC(=O)C3CC3)ncc12 [Example 200, N-(5-(5-((1s,3s)-3-methoxycyclobutoxy)benzo[d]oxazol-2-yl)-8-(methylamino)-2,7-naphthyridin-3-yl)cyclopropanecarboxamide] | ≤ 500 | – | Kd (TYK2 JH2; [2]): ≤ 100 nM
2 | CNc1ncc(C#Cc2ccc3nc(C(F)F)n(C)c3c2)c2cc(NC(=O)[C@H]3C[C@H]3C)ncc12 [Example 775, (1S,2R)—N-(5-((2-(difluoromethyl)-1-methyl-1H-benzo[d]imidazol-6-yl)ethynyl)-8-(methylamino)-2,7-naphthyridin-3-yl)-2-methylcyclopropane-1-carboxamide] | ≤ 500 | ≤ 100 | –
3 | CNc1ncc(-c2ccccc2C(N)=O)c2cc(NC(=O)C3CC3)ncc12 [Example 41, 2-(6-(cyclopropanecarboxamido)-1-(methylamino)-2,7-naphthyridin-4-yl)benzamide] | – | – | Kd (TYK2 JH2; [5]): 100 to 1000 nM; IC50 [1, 6]: > 500 nM
4 | CNc1ncc(Br)c2c1cnc1[nH]ccc12 [Example 824, 9-bromo-N-methyl-3H-pyrrolo[2,3-c][2,7]naphthyridin-6-amine] | > 500 | 100 to 1000 | –
5 | CNc1ncc(-c2nc3ccc(N4CC5CN(C)CC(C4)O5)cn3n2)c2cc(NC(=O)[C@H]3C[C@H]3C)ncc12 [Example 560, (1S,2R)-2-methyl-N-(5-(6-(7-methyl-9-oxa-3,7-diazabicyclo[3.3.1]nonan-3-yl)-[1,2,4]triazolo[1,5-a]pyridin-2-yl)-8-(methylamino)-2,7-naphthyridin-3-yl)cyclopropane-1-carboxamide] | ≤ 500 | – | Kd (TYK2 JH2; [2]): ≤ 100 nM
6 | [2H]C([2H])([2H])Nc1ncc(-c2nc3ccc(N4CCO[C@@H](C)C4)cn3n2)c2cc(NC(=O)C3(F)CC3)ncc12 [Example 576, (S)-1-fluoro-N-(8-((methyl-d3)amino)-5-(6-(2-methylmorpholino)-[1,2,4]triazolo[1,5-a]pyridin-2-yl)-2,7-naphthyridin-3-yl)cyclopropane-1-carboxamide] | ≤ 500 | – | Kd (TYK2 JH2; [2]): ≤ 100 nM
7 | CNc1ncc(-c2ccc(OC(F)(F)F)cc2)c2cc(NC(=O)C3CC3)ncc12 [Example 110, N-(8-(methylamino)-5-(4-(trifluoromethoxy)phenyl)-2,7-naphthyridin-3-yl)cyclopropanecarboxamide] | – | – | Kd (TYK2 JH2; [5]): ≤ 100 nM; IC50 [1, 6]: > 500 nM
8 | CNc1ncc(-c2nc3cc(N4CCO[C@H](C(F)F)C4)ccc3o2)c2cc(NC(=O)[C@H]3C[C@H]3C)ncc12 [Example 1058] | – | ≤ 100 | IC50 [1, 7]: ≤ 500 nM
9 | CNc1ncc(Nc2ccccc2)c2cc(NC(=O)C3CC3)ncc12 [Example 134, N-(8-(methylamino)-5-(phenylamino)-2,7-naphthyridin-3-yl)cyclopropanecarboxamide] | – | – | Kd (TYK2 JH2; [5]): 100 to 1000 nM; IC50 [1, 6]: > 500 nM
10 | CNc1ncc(C#Cc2ccc3c(c2)CCC(CO)O3)c2cc(NC(=O)C3CC3)ncc12 (stereo not shown) [Example 981] | ≤ 500 | ≤ 100 | –
11 | CNc1ncc(C#Cc2ccc(OC3CN(C(C)=O)C3)cc2)c2cc(NC(=O)[C@H]3C[C@H]3C(F)F)ncc12 (single isomer, unassigned) [Example 776] | ≤ 500 | ≤ 100 | –
12 | CNc1ncc(-c2nc3ccc(N4CCO[C@H]([C@@H](C)O)C4)cn3n2)c2cc(NC(=O)C3CC3)ncc12 (single isomer, unassigned) [Example 1045] | – | ≤ 100 | IC50 [1, 7]: ≤ 500 nM
13 | CNc1ncc(C(=O)O)c2cc(NC(=O)C3CC3)ncc12 [Example 120, 6-(cyclopropanecarboxamido)-1-(methylamino)-2,7-naphthyridine-4-carboxylic acid] | – | – | Kd (TYK2 JH2; [5]): 100 to 1000 nM; IC50 [1, 6]: > 500 nM
14 | CNc1ncc(C#Cc2cnn(C)n2)c2cc(NC(=O)C3CC3)ncc12 [Example 653, N-(5-((2-methyl-2H-1,2,3-triazol-4-yl)ethynyl)-8-(methylamino)-2,7-naphthyridin-3-yl)cyclopropanecarboxamide] | ≤ 500 | ≤ 100 | –
15 | CNc1ncc(C#Cc2ccc(OC)cn2)c2cc(NC(=O)C3CC3C(F)F)ncc12 [Example 744, (1R,18)-2-(difluoromethyl)-N-(5-((5-methoxypyridin-2-yl)ethynyl)-8-(methylamino)-2,7-naphthyridin-3-yl)cyclopropane-1-carboxamide] | ≤ 500 | ≤ 100 | –
16 | CNc1ncc(-c2ccn(CC(F)(F)F)n2)c2cc(NC(=O)C3CC3)ncc12 [Example 64, N-(8-(methylamino)-5-(1-(2,2,2-trifluoroethyl)-1H-pyrazol-3-yl)-2,7-naphthyridin-3-yl)cyclopropanecarboxamide] | – | – | Kd (TYK2 JH2; [5]): ≤ 100 nM; IC50 [1, 6]: ≤ 500 nM
17 | [2H]C([2H])([2H])Nc1ncc(-c2nc3ccccn3n2)c2cc(NC(=O)[C@@H]3C[C@@H]3F)ncc12 [Example 567, (1S,2S)—N-(5-([1,2,4]triazolo[1,5-a]pyridin-2-yl)-8-((methyl-d3)amino)-2,7-naphthyridin-3-yl)-2-fluorocyclopropane-1-carboxamide] | ≤ 500 | – | Kd (TYK2 JH2; [2]): ≤ 100 nM
18 | CNc1ncc(C#Cc2ccc(CN3CCOCC3)cc2)c2cc(NC(=O)[C@H]3C[C@H]3C)ncc12 [Example 821, (1S,2R)-2-methyl-N-(8-(methylamino)-5-((4-(morpholinomethyl)phenyl)ethynyl)-2,7-naphthyridin-3-yl)cyclopropane-1-carboxamide] | ≤ 500 | ≤ 100 | –
19 | CNc1ncc(-c2ccn(CC3CCSCC3)n2)c2cc(NC(=O)C3CC3)ncc12 [Example 153A, N-(8-(methylamino)-5-(1-((tetrahydro-2H-thiopyran-4-yl)methyl)-1H-pyrazol-3-yl)-2,7-naphthyridin-3-yl)cyclopropanecarboxamide] | – | – | Kd (TYK2 JH2; [5]): ≤ 100 nM; IC50 [1, 6]: > 500 nM

Second part, led by results:

Row | IC50 [1, 3] [nM] | Kd (TYK2 JH2; [4]) [nM] | SMILES | other results
20 | > 500 | ≤ 100 | CNc1ncc(C23CC(c4ccncc4)(C2)C3)c2cc(NC(=O)C3CC3)ncc12 [Example 845, N-(8-(methylamino)-5-(3-(pyridin-4-yl)bicyclo[1.1.1]pentan-1-yl)-2,7-naphthyridin-3-yl)cyclopropanecarboxamide] | –
21 | ≤ 500 | – | CNc1ncc(-c2nc3cc(OCC4CC4)ccc3o2)c2cc(NC(=O)C3CC3)ncc12 [Example 226, N-(5-(5-(cyclopropylmethoxy)benzo[d]oxazol-2-yl)-8-(methylamino)-2,7-naphthyridin-3-yl)cyclopropanecarboxamide] | Kd (TYK2 JH2; [2]): ≤ 100 nM
22 | ≤ 500 | ≤ 100 | CNc1ncc(-c2ccc(COc3ccncc3)cc2)c2cc(NC(=O)C3CC3)ncc12 [Example 868, N-(8-(methylamino)-5-(4-((pyridin-4-yloxy)methyl)phenyl)-2,7-naphthyridin-3-yl)cyclopropanecarboxamide] | –
23 | > 500 | ≤ 100 | CNc1ncc(-c2cn3cccnc3n2)c2cc(NC(=O)C3CC3)ncc12 [Example 841, N-(5-(imidazo[1,2-a]pyrimidin-2-yl)-8-(methylamino)-2,7-naphthyridin-3-yl)cyclopropanecarboxamide] | –
24 | ≤ 500 | ≤ 100 | CNc1ncc(C#Cc2ccncc2Cl)c2cc(NC(=O)C3CC3)ncc12 [Example 985, N-[5-[2-(3-chloro-4-pyridyl)ethynyl]-8-(methylamino)-2,7-naphthyridin-3-yl]cyclopropanecarboxamide] | –
25 | ≤ 500 | – | CNc1ncc(-c2nc3cc(OC)ccc3o2)c2cc(NC(=O)[C@@H]3C[C@H]3F)ncc12 [Example 390, (1S,2R)-2-fluoro-N-(5-(5-methoxybenzo[d]oxazol-2-yl)-8-(methylamino)-2,7-naphthyridin-3-yl)cyclopropane-1-carboxamide] | Kd (TYK2 JH2; [2]): ≤ 100 nM
26 | ≤ 500 | – | CCOCCc1cccc2nc(-c3cnc(NC)c4cnc(NC(=O)C5CC5)cc34)nn12 [Example 507, N-(5-(5-(2-ethoxyethyl)-[1,2,4]triazolo[1,5-a]pyridin-2-yl)-8-(methylamino)-2,7-naphthyridin-3-yl)cyclopropanecarboxamide] | Kd (TYK2 JH2; [2]): ≤ 100 nM
27 | ≤ 500 | ≤ 100 | CNc1ncc(-c2nc3cc(OC)cc(F)c3o2)c2cc(NC(=O)C3CC3)ncc12 [Example 937, N-(5-(7-fluoro-5-methoxybenzo[d]oxazol-2-yl)-8-(methylamino)-2,7-naphthyridin-3-yl)cyclopropanecarboxamide] | –
28 | ≤ 500 | ≤ 100 | CNc1ncc(C#Cc2ccc(OCC(F)(F)F)cn2)c2cc(NC(=O)C3CC3)ncc12 [Example 993, N-[8-(methylamino)-5-[2-[5-(2,2,2-trifluoroethoxy)-2-pyridyl]ethynyl]-2,7-naphthyridin-3-yl]cyclopropanecarboxamide] | –
29 | ≤ 500 | ≤ 100 | CNc1ncc(C#Cc2ccc(C#N)cn2)c2cc(NC(=O)C3CC3)ncc12 [Example 661, N-(5-((5-cyanopyridin-2-yl)ethynyl)-8-(methylamino)-2,7-naphthyridin-3-yl)cyclopropanecarboxamide] | –
